# Test results taken from patent US20240081300A1, “ADRENERGIC MECHANISMS OF AUDIOGENIC SEIZURE-INDUCED DEATH IN MOUSE MODEL OF SCN8A ENCEPHALOPATHY” (University of Virginia Patent Foundation, priority 2021, published 2024).
# Entries after “also recorded” stand apart in the source; their conditions may differ.
# Experiments:
# [1] = tested on: adult D/+ mice (Scn8a N1768D); test: Audiogenic seizure survival in adult D/+ mice after adrenergic receptor inhibition; assay type: in vivo, mouse; conditions: 10 mg/kg sotalol i.p. 15 minutes prior to audiogenic seizure stimulation
# Experimental: (§1) Audiogenic seizure assessment. To test for audiogenic seizures mice were taken from their home cage and transferred to a clean test cage where they were allowed to acclimate for ˜20 seconds before the onset of the acoustic stimulus. Similar to a method described previously (Martin et al., 2020), a sonicator (Branson 200 ultrasonic cleaner) was used to produce the audiogenic stimulus directly adjacent to the test cage.
# (§2) Audiogenic seizures were recorded using a laptop webcam. Duration of seizure phases were analyzed by taking the time in seconds that the mouse spent in each of the phases: a wild-running phase characterized by fast circular running throughout the cage, a tonic phase characterized by hindlimb extension and muscle rigidity, a clonic phase typified by myoclonic jerking of the hindlimbs, and recovery exemplified when the mouse ceased myoclonic jerking and righted itself. In cases where death occurred, the end of the tonic phase was apparent at the point of hindlimb muscle relaxation.
# (§3) For recording of only breathing in pharmacological experiments, non-implanted mice were placed in the chambers immediately after injection of pharmacological agents. Stimulation of audiogenic seizures and recording of breathing were performed as described above.
# Mechanical ventilation. […]
# [2] = tested on: P20-21 D/+ mice (Scn8a N1768D); test: Audiogenic seizure-induced death in P20-21 D/+ mice (adrenergic agonists, adrenergic blockade with mechanical ventilation); assay type: in vivo, mouse; conditions: for postictal breathing recovery (plethysmography): 3 mg/kg phenylephrine i.p. 1 minute prior
# Experimental: as §1, §2, §3
# Mechanical ventilation. For the mechanical ventilation of P20-21 D/+ mice during an audiogenic seizure, we quickly placed a custom-made 3 mL pipet which fit snuggly over the mouse's nose and mouth and provided regular pulses of air (˜1 mL at 2 Hz). The ventilation was terminated after the mouse initiated gasping behavior or 20 s after the animal experienced sudden death.
# Adrenergic receptor pharmacology. All chemicals were purchased from Sigma Aldrich and were either of pharmaceutical grade or were sterile filtered prior to injection. Injections were given intraperitoneal in a volume of 50-100 ul sterile saline per […] of mouse weight (e.g. 0.1 mL for a […] adult mouse). […] Injection of 50-100 ul sterile saline per […] of mouse weight was used as control.
# [3] = tested on: DBA1 mice; conditions: intracerebroventricular injection (Zhao et al., 2017); cited from earlier work
# [4] = tested on: maximal electroshock seizures; conditions: intracerebroventricular injection (Kruse et al., 2019); cited from earlier work
structure (smiles),measurement,setting,value
CC(C)NCC(O)c1ccc(NS(C)(=O)=O)cc1 (stereo not shown) [sotalol],survival after audiogenic seizure (mice surviving of mice tested),[1],12 out of 12 and had no affect on death rate
CNC[C@H](O)c1ccc(O)c(O)c1 [epinephrine],survival after audiogenic seizure (mice rescued of mice tested),"[2]; 2 mg/kg epinephrine i.p. 1 minute prior to audiogenic seizure stimulation, 2 mg/kg",one of the five; also recorded: did not seem to result in rescue
CNCC[C@@H](Oc1ccccc1C)c1ccccc1 [atomoxetine],prevention of death from audiogenic seizures,[3],prevents death
"NC[C@H](O)c1ccc(O)c(O)c1 [NE, 4-[(1R)-2-amino-1-hydroxyethyl]benzene-1,2-diol]",breathing recovery after tonic phase (plethysmography),[2]; 2 mg/kg norepinephrine i.p. 1 minute prior,resulted in breathing recovery
same,survival after audiogenic seizure (mice surviving of mice tested),"[2]; 2 mg/kg norepinephrine i.p. 1 minute prior to audiogenic seizure stimulation, saline 3 of 13, 2 mg/kg",10 of 13 and significantly elevated rates of survival
"CNC[C@H](O)c1cccc(O)c1 [phenylephrine, 3-[(1R)-1-hydroxy-2-(methylamino)ethyl]phenol]",survival after audiogenic seizure (mice surviving of mice tested),"[2]; 3 mg/kg phenylephrine i.p. 1 minute prior to audiogenic seizure stimulation, 3 mg/kg",7 out of 8 and rescued death
same,survival after audiogenic seizure (mice surviving of mice tested),"[2]; 3 mg/kg phenylephrine i.p. 1 minute prior to audiogenic seizure stimulation, listed as PE, 3 mg/kg",significantly elevated rates of survival
same,postictal breathing recovery (plethysmography),[2]; 3 mg/kg,promoted postictal breathing recovery
same,postictal breathing recovery (plethysmography),"[2]; listed as PE, 3 mg/kg",breathing also ceased during the tonic phase but recovered
same,prevention of death from maximal electroshock seizures,[4],prevents death
